Data published in US12077503B2, “Substituted cyclic amides and their use as herbicides” (FMC CORPORATION, priority 2015, dated 2024).

What was measured:
Assay type in all cases: in vivo
Kochia (Kochia scoparia) [1] = assay: Test A preemergence; conditions: Preemergence; for Plant response rating, Kochia: 125 g ai/ha, visual injury after approximately 10 d, 0 to 100 scale where 0 is no effect and 100 is complete control; for Kochia plant response rating (0 to 100 scale, 0 is no effect, 100 is complete control): 500 g ai/ha, visual injury approx. 10 d
Text: (§1) Seeds of plant species selected from barnyardgrass (Echinochloa crus-galli), Kochia (Kochia scoparia), ragweed (common ragweed, Ambrosia elatior), ryegrass, Italian (Italian ryegrass, Lolium multiflorum), crabgrass, large (Digitaria sanguinalis), giant foxtail (Setaria faberii), green foxtail (Setaria viridis), morningglory (Ipomoea spp.), pigweed (Amaranthus retroflexus), velvetleaf (Abutilon theophrasti), wheat (Triticum aestivum), and corn (Zea mays) were planted into a blend of loam soil and sand and treated preemergence with a directed soil spray using test chemicals formulated in anon-phytotoxic solvent mixture which included a surfactant.
(§2) At the same time, plants selected from these crop and weed species and also blackgrass (Alopecurus myosuroides), and Galium (catchweed bedstraw, Galium aparine) were planted in pots containing the same blend of loam soil and sand and treated with postemergence applications of test chemicals formulated in the same manner. Plants ranged in height from 2 to 10 cm and were in the one- to two-leaf stage for the postemergence treatment. Treated plants and untreated controls were maintained in a greenhouse for approximately 10 d, after which time all treated plants were compared to untreated controls and visually evaluated for injury. Plant response ratings, summarized in Table A, are based on a 0 to 100 scale where 0 is no effect and 100 is complete control. A dash (-) response means no test result.

[2] = system: barnyardgrass (Echinochloa crus-galli); assay: Test A preemergence; conditions: Preemergence; for Plant response rating, Barnyardgrass: 125 g ai/ha, visual injury after approximately 10 d, 0 to 100 scale where 0 is no effect and 100 is complete control; for Barnyardgrass plant response rating (0 to 100 scale, 0 is no effect, 100 is complete control): 500 g ai/ha, visual injury approx. 10 d
Text: as §1, §2

[3] = system: giant foxtail (Setaria faberii); assay: Test A preemergence; conditions: Preemergence; for Plant response rating, Foxtail, Giant: 125 g ai/ha, visual injury after approximately 10 d, 0 to 100 scale where 0 is no effect and 100 is complete control; for Foxtail, Giant plant response rating (0 to 100 scale, 0 is no effect, 100 is complete control): 500 g ai/ha, visual injury approx. 10 d
Text: as §1, §2

[4] = system: pigweed (Amaranthus retroflexus); assay: Test A preemergence; conditions: Preemergence; for Plant response rating, Pigweed: 125 g ai/ha, visual injury after approximately 10 d, 0 to 100 scale where 0 is no effect and 100 is complete control; for Pigweed plant response rating (0 to 100 scale, 0 is no effect, 100 is complete control): 500 g ai/ha, visual injury approx. 10 d
Text: as §1, §2

[5] = system: ragweed (common ragweed, Ambrosia elatior); assay: Test A preemergence; conditions: Preemergence; for Plant response rating, Ragweed: 125 g ai/ha, visual injury after approximately 10 d, 0 to 100 scale where 0 is no effect and 100 is complete control; for Ragweed plant response rating (0 to 100 scale, 0 is no effect, 100 is complete control): 500 g ai/ha, visual injury approx. 10 d
Text: as §1, §2

[6] = system: ryegrass, Italian (Italian ryegrass, Lolium multiflorum); assay: Test A preemergence; conditions: Preemergence; for Plant response rating, Ryegrass, Italian: 125 g ai/ha, visual injury after approximately 10 d, 0 to 100 scale where 0 is no effect and 100 is complete control; for Ryegrass, Italian plant response rating (0 to 100 scale, 0 is no effect, 100 is complete control): 500 g ai/ha, visual injury approx. 10 d
Text: as §1, §2

[7] = system: Galium (catchweed bedstraw, Galium aparine); assay: Test A postemergence
Text: as §1, §2

Kochia (Kochia scoparia) [8] = assay: Test A postemergence
Text: as §1, §2

[9] = system: barnyardgrass (Echinochloa crus-galli); assay: Test A postemergence
Text: as §1, §2

[10] = system: blackgrass (Alopecurus myosuroides); assay: Test A postemergence
Text: as §1, §2

corn (Zea mays) = assay: Test A postemergence
Text: as §1, §2

[11] = system: giant foxtail (Setaria faberii); assay: Test A postemergence
Text: as §1, §2

[12] = system: pigweed (Amaranthus retroflexus); assay: Test A postemergence
Text: as §1, §2

[13] = system: ragweed (common ragweed, Ambrosia elatior); assay: Test A postemergence
Text: as §1, §2

[14] = system: ryegrass, Italian (Italian ryegrass, Lolium multiflorum); assay: Test A postemergence
Text: as §1, §2

[15] = system: wheat (Triticum aestivum); assay: Test A postemergence
Text: as §1, §2

[16] = 125 g ai/ha, postemergence, visual rating after approx. 10 d, 0 to 100 scale (0 no effect, 100 complete control)
[17] = Postemergence, 500 g ai/ha, 0 to 100 scale where 0 is no effect and 100 is complete control

Row | SMILES | Plant response rating, Kochia (Kochia (Kochia scoparia) [1]) | Kochia plant response rating (0 to 100 scale, 0 is no effect, 100 is complete control) (Kochia (Kochia scoparia) [1]) | Plant response rating, Barnyardgrass [2] | Barnyardgrass plant response rating (0 to 100 scale, 0 is no effect, 100 is complete control) [2] | Plant response rating, Foxtail, Giant [3] | Foxtail, Giant plant response rating (0 to 100 scale, 0 is no effect, 100 is complete control) [3] | Plant response rating, Pigweed [4] | Pigweed plant response rating (0 to 100 scale, 0 is no effect, 100 is complete control) [4] | Plant response rating, Ragweed [5] | Ragweed plant response rating (0 to 100 scale, 0 is no effect, 100 is complete control) [5] | Plant response rating, Ryegrass, Italian [6] | Ryegrass, Italian plant response rating (0 to 100 scale, 0 is no effect, 100 is complete control) [6] | Plant response rating, Galium [7, 16] | Plant response rating, Galium [7, 17] | Plant response rating, Kochia (Kochia (Kochia scoparia) [8]; [16]) | Plant response rating, Kochia (Kochia (Kochia scoparia) [8]; [17]) | Plant response rating, Barnyardgrass [9, 16] | Plant response rating, Barnyardgrass [9, 17] | Plant response rating, Blackgrass [10, 16] | Plant response rating, Blackgrass [10, 17] | other results
1 | CCc1cccc(C2CN(C)C(=O)C2C(=O)Nc2cccc(F)c2F)c1 (stereo not drawn) [Compound 568] | 70 | 80 | 90 | 100 | 100 | 100 | 30 | 60 | 20 | 50 | 70 | 100 | 60 | 60 | 70 | 70 | 100 | 100 | 60 | 90 | Plant response rating, Corn (corn (Zea mays); [16]): 60; Plant response rating, Corn (corn (Zea mays); [17]): 90; Plant response rating, Foxtail, Giant [11, 16]: 90; Plant response rating, Foxtail, Giant [11, 17]: 90; Plant response rating, Pigweed [12, 16]: 30; Plant response rating, Pigweed [12, 17]: 60; Plant response rating, Ragweed [13, 16]: 30; Plant response rating, Ragweed [13, 17]: 30; Plant response rating, Ryegrass, Italian [14, 16]: 70; Plant response rating, Ryegrass, Italian [14, 17]: 90; Plant response rating, Wheat [15, 16]: 30; Plant response rating, Wheat [15, 17]: 70
2 | CN1CC(c2cccc(C(F)(F)F)c2)C(C(=O)Nc2cccc(C#N)c2F)C1=O (stereo not drawn) [Compound 576] | 20 | 90 | 90 | 90 | 90 | 90 | 20 | 80 | 20 | 60 | 20 | 30 | 50 | 60 | 30 | 60 | 90 | 90 | 50 | 50 | Plant response rating, Corn (corn (Zea mays); [16]): 80; Plant response rating, Corn (corn (Zea mays); [17]): 80; Plant response rating, Foxtail, Giant [11, 16]: 90; Plant response rating, Foxtail, Giant [11, 17]: 90; Plant response rating, Pigweed [12, 16]: 0; Plant response rating, Pigweed [12, 17]: 50; Plant response rating, Ragweed [13, 16]: 30; Plant response rating, Ragweed [13, 17]: 50; Plant response rating, Ryegrass, Italian [14, 16]: 30; Plant response rating, Ryegrass, Italian [14, 17]: 60; Plant response rating, Wheat [15, 16]: 60; Plant response rating, Wheat [15, 17]: 70
3 | Cc1ccc(C2CN(C)C(=O)C2C(=O)Nc2ccccc2S(C)(=O)=O)c(F)c1 (stereo not drawn) [Compound 558] | 70 | 80 | 90 | 100 | 90 | 100 | 30 | 70 | 50 | 70 | 0 | 60 | 30 | 60 | 20 | 70 | 80 | 100 | 20 | 60 | Plant response rating, Corn (corn (Zea mays); [16]): 0; Plant response rating, Corn (corn (Zea mays); [17]): 20; Plant response rating, Foxtail, Giant [11, 16]: 70; Plant response rating, Foxtail, Giant [11, 17]: 90; Plant response rating, Pigweed [12, 16]: 0; Plant response rating, Pigweed [12, 17]: 0; Plant response rating, Ragweed [13, 16]: 0; Plant response rating, Ragweed [13, 17]: 40; Plant response rating, Ryegrass, Italian [14, 16]: 0; Plant response rating, Ryegrass, Italian [14, 17]: 40; Plant response rating, Wheat [15, 16]: 0; Plant response rating, Wheat [15, 17]: 40
